14 compounds from EP0097446B1, “Penicillin derivatives and process for preparation of the same” (TAIHO PHARMACEUTICAL COMPANY LIMITED, priority 1982, dated 1984) can be followed below.

Assay [1] relates to 30 strains of coliform bacilli collected from the living body of humans. As to the kind of experiment: MIC50 and MIC70 against 30 clinical strains, antibiotics alone and combined with present compound. Format: cell-based. The note with it: for MIC50: Homo sapiens, 20 h, concentration inhibiting growth of 50% of 30 strains; for MIC70, Present compound as combined with ampicillin: MIC of ampicillin with present compound (10 pg/ml [sic]); for MIC70, Present compound as combined with ampicillin / MIC70, Present compound as combined with cephalexin / MIC70, Present compound as combined with mecillinam / MIC70, Present compound as combined with piperacillin: 70% of 30 strains; for MIC70, Present compound as combined with cephalexin: MIC of cephalexin with present compound (10 pg/ml [sic]); for MIC70, Present compound as combined with mecillinam: MIC of mecillinam with present compound (10 pg/ml [sic]); for MIC70, Present compound as combined with piperacillin: MIC of piperacillin with present compound (10 pg/ml [sic]). The procedure:
(§1) The MIC of ampicillin as combined with the present compound (10 µg/ml) was measured against the same bacteria. In the method, the bacteria cultivated in Mueller Hinton Broth (product of DIFCO) and diluted to 10' CFU/ml were inoculated into the same medium containing ampicillin and the present compound in a specific concentration, and incubated at 37°C for 20 hours. […] The bacteria as used in the test were those capable of producing β-lactamase, among which the bacteria marked ^* in the table are those collected from the living body of human hosts and the others are a stock culture.
The compounds of the present invention, ampicillin, mecillinam, piperacillin and cephalexin, each singly used, were also tested for minimal inhibitory concentration against 30 strains of coliform bacilli collected from the living body of humans. The MIC of each antibiotic as combined with the present compound (10 pg/ml) was likewise measured. Table 4 to 7 indicate the results in which MlC50 and MlC70 indicate the minimal inhibitory concentration for inhibiting the growth of 50% and 70% respectively of the strains. The MICs of the present compounds singly used were all more than 25 µg/ml.

In the next assay the test system is S.marcescens TH—05. As to the kind of experiment: MIC by micro-broth dilution method. Format: cell-based. The note with it: Serratia marcescens, 20 h. The procedure:
as §1
(§2) The same test as above was carried out to determine the antibacterial activity of the sodium 2β-(4,5-dimethoxycarbonyl-1,2,3-triazole-1-yl)methyl-2a-methylpenam-3a-carboxylate-1,1-dioxide (Compound 26) obtained in Example 24.
On the technique in general: Broth dilution looks for growth in wells or tubes with falling amounts of substance.

In another assay the test system is E.coli TH—13. As to the kind of experiment: MIC by micro-broth dilution method. The note with it: Escherichia coli, 20 h. Format: cell-based. The procedure:
as §1, §2

The next assay concerns E.coli TH—34. The assay can be described thus: MIC by micro-broth dilution method. Format: cell-based. The note with it: Escherichia coli, 20 h, Table 3, inoculate 10^7 CFU/ml, singly used. The procedure:
as §1, §2

A further assay concerns S.aureus ATCC 90124. The assay can be described thus: MIC by micro-broth dilution method. Format: cell-based. The note with it: Staphylococcus aureus, ATCC90124, 20 h. On the procedure:
as §1, §2

The subject of the next assay is S.aureus S—54. The assay can be described thus: MIC by micro-broth dilution method. Format: cell-based. The conditions noted are these: Staphylococcus aureus. The procedure: as §1, §2
The next assay deals with P.mirabilis 121—1. The assay can be described thus: MIC by micro-broth dilution method. Format: cell-based. The note with it: Proteus mirabilis, 20 h, Table 3, inoculate 10^7 CFU/ml, singly used. The procedure:
as §1, §2

A further assay concerns P.vulgaris IID OX—19. The assay can be described thus: MIC by micro-broth dilution method. The note with it: Proteus vulgaris, 20 h. Format: cell-based. On the procedure:
as §1, §2

Another assay has as its system P.Mirabilis 121. The assay can be described thus: MIC by micro-broth dilution method. The note with it: Proteus mirabilis, 20 h, Table 2, read-out: MIC, Ampicillin (singly used). Format: cell-based. On the procedure: as §1
Another assay has as its system E.coli TH—397. The assay can be described thus: MIC by micro-broth dilution method. Format: cell-based. The note with it: Escherichia coli, 20 h, Table 2, read-out: MIC, Ampicillin (singly used). On the procedure: In the method, the bacteria cultivated in Mueller Hinton Broth (product of DIFCO) and diluted to 10' CFU/ml were inoculated into the same medium containing ampicillin and the present compound in a specific concentration, and incubated at 37°C for 20 hours. […] The bacteria as used in the test were those capable of producing β-lactamase, among which the bacteria marked ^* in the table are those collected from the living body of human hosts and the others are a stock culture.

The target in assay [2] is penicillinase (β-lactamase) from Bacillus SP. The assay can be described thus: β-lactamase inhibitory activity by microiodometry, penicillin G as substrate. Format: biochemical. The note with it: read-out: 50% Inhibitory Concentration. The procedure: The inhibitory activity against penicillinase (β-lactamase) from Bacillus SP was measured by . microiodometry [Tanpakushitsu Kakusan Koso (Protein Nucleic Acid Enzyme), vol. 23, No. 5, pp 391-400 (1978)] using a penicillin G as a substrate.

Assay [3] has the same target. As to the kind of experiment: β-lactamase inhibitory activity by pH stat method, penicillin G as substrate. The note with it: read-out: 50% β-lactamase inhibitory concentration. Format: biochemical.
[4] abbreviates: concentration inhibiting growth of 70% of 30 strains.
Where [5] appears, read: Table 2, read-out: MIC, Ampicillin (singly used).
Setting [6] is: Table 3, inoculate 10^7 CFU/ml, singly used, read-out: MIC, Ampicillin.
[7] abbreviates: Table 3, inoculate 10^7 CFU/ml, singly used, read-out: MIC, Comp. 26.

Converted amounts (≈) assume the structure as drawn. Where two headings read alike, the source gives them in different places. Bounds are passed on as bounds.

Usually MIC50 stands for the lowest concentration that inhibits either 50% of growth or 50% of the strains tested, depending on the study. As a reminder, the MIC is the lowest concentration found to suppress growth. In the case of `CC1(C)S[C@@H]2[C@H](NC(=O)[C@H](N)c3ccccc3)C(=O)N2[C@H]1C(=O)O` [Ampicillin, ampicillin], the MIC50 in assay [1] (read-out: MIC50, Ampicillin singly used) is 400 µg/mL. Also, the “MIC70, Ampicillin singly used” value in assay [1] (setting [4]) was above 400 µg/mL. For the same compound, the MIC in the assay with S.marcescens TH—05 (setting [5]) is above 400 µg/mL; in the assay with S.marcescens TH—05 (setting [6]) it was 800 µg/mL (≈ 2290 µM); in the assay with E.coli TH—13 (setting [5]) it was 400 µg/mL (≈ 1140 µM); in the assay on E.coli TH—13 (setting [6]), 400 µg/mL (≈ 1140 µM); in the assay on E.coli TH—34 (read-out: MIC, Ampicillin), 800 µg/mL (≈ 2290 µM); with S.aureus ATCC 90124 (setting [5]), 25 µg/mL (≈ 71.5 µM). Also, the MIC in the assay on S.aureus ATCC 90124 (setting [6]) is 50 µg/mL (≈ 143 µM); with S.aureus S—54 (20 h, Table 3, inoculate 10^7 CFU/ml, singly used, read-out: MIC, Ampicillin) it was 100 µg/mL (≈ 286 µM); in the assay with S.aureus S—54 (Table 2, 37°C, 20 hours, read-out: MIC, Ampicillin (singly used)), 25 µg/mL (≈ 71.5 µM); in the assay with P.mirabilis 121—1 (read-out: MIC, Ampicillin), 800 µg/mL (≈ 2290 µM); in the assay with P.vulgaris IID OX—19 (setting [5]), 100 µg/mL (≈ 286 µM); in the assay with P.vulgaris IID OX—19 (setting [6]) it was 25 µg/mL (≈ 71.5 µM). For the same compound, the MIC in the assay on P.Mirabilis 121 was above 400 µg/mL; in the assay on E.coli TH—397 it was 400 µg/mL (≈ 1140 µM).
As to `CC1=C(C(=O)O)N2C(=O)[C@@H](NC(=O)[C@H](N)c3ccccc3)[C@H]2SC1` [Cephalexin, cephalexin, reference compound], the MIC50 in assay [1] (read-out: MIC50, Cephalexin singly used) is 25 µg/mL. The “MIC70, Cephalexin singly used” value in assay [1] (setting [4]) stood at 100 µg/mL.
With `CCOC(=O)c1cn(C[C@@]2(C)[C@H](C(=O)O)N3C(=O)C[C@H]3S2(=O)=O)nn1` [Compound 7, sodium 2β-(4-ethoxycarbonyl-1,2,3-triazole-1-yl)methyl-2α-methylpenam-3α-caboxylate-1,1-dioxide], in assay [1], the “MIC70, Present compound as combined with ampicillin” value (from here on “MIC70 … with ampicillin”) was found to be 50 µg/mL; the “MIC70, Present compound as combined with cephalexin” value (from here on “MIC70 … with cephalexin”) stood at 100 µg/mL; the “MIC70, Present compound as combined with mecillinam” value (from here on “MIC70 … with mecillinam”) turned out to be 0.39 µg/mL; the “MIC70, Present compound as combined with piperacillin” value (from here on “MIC70 … with piperacillin”) worked out at 6.25 µg/mL. Moreover, in assay [2], the IC50 amounted to 54 nM.
Regarding `CCOC(=O)c1cnnn1C[C@@]1(C)[C@H](C(=O)O)N2C(=O)C[C@H]2S1(=O)=O` [Compound 11, sodium 2β-(5-ethoxycarbonyl-1,2,3-triazole-1-yl)methyl-2α-methylpenam-3α-carboxylate-1,1-dioxide], in assay [1], the “MIC70 … with ampicillin” value amounted to 100 µg/mL; the “MIC70 … with cephalexin” value amounted to 100 µg/mL; the “MIC70 … with mecillinam” value turned out to be 0.39 µg/mL; the “MIC70 … with piperacillin” value was determined as 25 µg/mL. In assay [2], the IC50 turned out to be 340 nM.
In the case of `COC(=O)c1cn(C[C@@]2(C)[C@H](C(=O)O)N3C(=O)C[C@H]3S2(=O)=O)nn1` [Compound 12, sodium 2β-(4-methoxycarbonyl-1,2,3-triazole-1-yl)methyl-2a-methylpenam-3α-carboxylate-1,1-dioxide], the IC50 in assay [2] is 49 nM.
The same measure, in the same setting: for `COC(=O)c1cnnn1C[C@@]1(C)[C@H](C(=O)O)N2C(=O)C[C@H]2S1(=O)=O` [Compound 13, sodium 2β-(5-methoxycarbonyl-1,2,3-triazote-1-yl)methyl-2α-methylpenam-3α-carboxylate-1,1-dioxide] the value was 300 nM.
As for `C[C@]1(Cn2cc(C(=O)O)nn2)[C@H](C(=O)O)N2C(=O)C[C@H]2S1(=O)=O` [Compound 16, dipotassium 2β-(4-carboxy-1,2,3-triazole-1-yl)methyl-2α-methylpenam-3α-carboxylate-1,1-dioxide], in assay [1], the “MIC70 … with ampicillin” value was 6.25 µg/mL; the “MIC70 … with cephalexin” value came to 25 µg/mL; the “MIC70 … with mecillinam” value was determined as 0.1 µg/mL; the “MIC70 … with piperacillin” value stood at 3.13 µg/mL. For the same compound, the IC50 in assay [2] was determined as 600 nM.
Consider `C[C@]1(Cn2nncc2C(=O)O)[C@H](C(=O)O)N2C(=O)C[C@H]2S1(=O)=O` [Compound 17, dipotassium 2β-(5-carboxy-1,2,3-triazole-1-yl)methyl-2α-methylpenam-3α-carboxylate-1,1-dioxide], for which, in assay [1], the “MIC70 … with ampicillin” value came to 100 µg/mL; the “MIC70 … with cephalexin” value came to 12.5 µg/mL; the “MIC70 … with mecillinam” value came to 0.39 µg/mL; the “MIC70 … with piperacillin” value stood at 50 µg/mL. Besides, in [2], the IC50 came to 1700 nM.
In the case of `C[C@]1(Cn2ccnn2)[C@H](C(=O)O)N2C(=O)C[C@H]2S1(=O)=O` [Compound 22, sodium 2α-methyl-2β-(1,2,3-triazole-1-yl)-methylpenam-3α-carboxylate-1,1-dioxide], in assay [1], the “MIC70 … with ampicillin” value came to 6.25 µg/mL; the “MIC70 … with cephalexin” value is 50 µg/mL; the “MIC70 … with mecillinam” value came to 0.2 µg/mL; the “MIC70 … with piperacillin” value was 1.56 µg/mL. In assay [2], the IC50 was 690 nM.
For `C[C@]1(Cn2cc([Si](C)(C)C)nn2)[C@H](C(=O)O)N2C(=O)C[C@H]2S1(=O)=O` [Compound 24, sodium 2α-methyl-2β-(4-trimethylsilyl-1,2,3-triazole-1-yl)-methylpenam-3α-carboxylate-1,1-dioxide], in assay [2], the IC50 worked out at 510 nM.
Regarding `COC(=O)c1nnn(C[C@@]2(C)[C@H](C(=O)O)N3C(=O)C[C@H]3S2(=O)=O)c1C(=O)OC` [Compound 26, sodium 2β-(4,5-dimethoxycarbonyl-1,2,3-triazole-1-yl)-methyl-2α-methylpenam-3α-carboxylate-1,1-dioxide], the IC50 in assay [3] was determined as 300 nM. Moreover, the MIC in the assay on S.marcescens TH—05 (setting [7]) is above 50 µg/mL; in the assay on E.coli TH—13 (setting [7]), above 50 µg/mL; in the assay on E.coli TH—34 (read-out: MIC, Comp. 26), above 50 µg/mL; in the assay on S.aureus ATCC 90124 (setting [7]) it was above 50 µg/mL; with S.aureus S—54 (20 h, Table 3, inoculate 10^7 CFU/ml, singly used, read-out: MIC, Comp. 26) it was above 50 µg/mL; in the assay on P.mirabilis 121—1 (read-out: MIC, Comp. 26), above 50 µg/mL. The MIC in the assay with P.vulgaris IID OX—19 (setting [7]) turned out to be 25 µg/mL.
`C[C@]1(Cn2nnc(C(=O)O)c2C(=O)O)[C@H](C(=O)O)N2C(=O)C[C@H]2S1(=O)=O` [Compound 39, tri-sodium 2β-(4,5-dicarboxy-1,2,3-triazole-1-yl)methyl-2α-methylpenam-3α-carboxylate-1,1-dioxide]: in [2], the IC50 worked out at 2300 nM.
`CC1(C)S[C@@H]2[C@H](/N=C/N3CCCCCC3)C(=O)N2[C@H]1C(=O)O` [Mecillinam, mecillinam, reference compound]: the MIC50 in assay [1] (read-out: MIC50, Mecillinam singly used) amounted to 3.13 µg/mL. For the same compound, in [1] (setting [4]), the “MIC70, Mecillinam singly used” value was found to be 12.5 µg/mL.
As for `CCN1CCN(C(=O)N[C@@H](C(=O)N[C@@H]2C(=O)N3[C@@H]2SC(C)(C)[C@@H]3C(=O)O)c2ccccc2)C(=O)C1=O` [Piperacillin, piperacillin, reference compound], the MIC50 in [1] (read-out: MIC50, Piperacillin singly used) amounted to 50 µg/mL. Further, in assay [1] (setting [4]), the “MIC70, Piperacillin singly used” value stood at 200 µg/mL.
